Measurements taken from patent US12297203B2, “Pyrrolopyrimidine ITK inhibitors” (ACLARIS THERAPEUTICS, INC., priority 2018, dated 2025).

How the values were obtained:
[1] = test system: ITK phosphorylation of its substrate, PLCγ1, at Y783; test: ITK target modulation assay (PLCγ1 Y783 phosphorylation, anti-CD3 stimulated Jurkat T cells); type: cell-based; conditions: Homo sapiens, Jurkat, anti-CD3 Dynabeads stimulation, read-out: PLC-γ Inh. IC50
Summary of the method: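 Jurkat cells (400,000/well) were preincubated with compound for 1 h at 37 °C (0.1% DMSO final), then stimulated with anti-CD3 Dynabeads (bead:cell 2:1). Hypotonic lysates were dot-blotted and probed for phospho-PLCγ1 Y783 and total PLCγ1, with quantification by dual-channel infrared imaging.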

[2] = test system: JAK1/3 phosphorylation of its substrate, STAT5, at Y694; test: JAK1/3 target modulation assay (IL-2 stimulated STAT5 Y694 phosphorylation in PBMC); type: cell-based; conditions: Homo sapiens, PBMC, Primary human peripheral blood mononuclear cells, IL-2 25 ng/mL; read-out: IL2-STAT5 Inh. IC50
Summary of the method: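 Human PBMCs preincubated with compound for 1 h at 37 °C, then stimulated with IL-2 (25 ng/mL final) for 5 min. Cells were lysed and phospho-STAT5a,b (Y694) measured by MSD electrochemiluminescence immunoassay, single-plex or multiplex with total STAT5a,b.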

JAK3 = JAK3 (Homo sapiens (Human), UniProt P52333); test: JAK3 enzyme activity assay (Caliper mobility shift); type: biochemical; conditions: ATP at Km level; read-out: JAK3 Inh. IC50
Summary of the method: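 Caliper mobility-shift assay with 2.5 nM JAK3, […] and […] (Km level) in 20 mM HEPES pH 7.5, 10 mM MgCl2, 0.01% BSA, 0.0005% Tween-20, 2% DMSO. 11-point dose-response from […] 0.34 nM; IC50 by 4-parameter logistic fit of product/substrate signal.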

ITK = ITK (Homo sapiens (Human), UniProt Q08881); test: ITK inhibitor binding potency (LanthaScreen competitive binding assay); conditions: read-out: ITK Inh. IC50
Summary of the method: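 TR-FRET tracer displacement: 10 nM GST-ITK, 2 nM Eu-anti-GST, 50 nM tracer-236 in HEPES pH 7.5, MgCl2, 2% DMSO; 11 points, 20 µM–0.34 nM. Run with or without 2 h compound–ITK preincubation before tracer; IC50 by 4-parameter fit of emission ratio.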

JAK3, sequence (P52333 781-1124): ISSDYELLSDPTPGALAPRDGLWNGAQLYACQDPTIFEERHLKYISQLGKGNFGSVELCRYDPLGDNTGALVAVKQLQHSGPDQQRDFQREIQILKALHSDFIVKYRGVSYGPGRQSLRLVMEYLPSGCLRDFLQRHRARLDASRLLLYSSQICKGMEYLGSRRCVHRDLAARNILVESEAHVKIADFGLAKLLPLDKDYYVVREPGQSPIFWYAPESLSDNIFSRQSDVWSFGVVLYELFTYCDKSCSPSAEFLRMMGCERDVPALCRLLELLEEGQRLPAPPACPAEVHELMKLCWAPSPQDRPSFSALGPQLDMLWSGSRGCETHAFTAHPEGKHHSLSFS
ITK, sequence (Q08881 whole entry): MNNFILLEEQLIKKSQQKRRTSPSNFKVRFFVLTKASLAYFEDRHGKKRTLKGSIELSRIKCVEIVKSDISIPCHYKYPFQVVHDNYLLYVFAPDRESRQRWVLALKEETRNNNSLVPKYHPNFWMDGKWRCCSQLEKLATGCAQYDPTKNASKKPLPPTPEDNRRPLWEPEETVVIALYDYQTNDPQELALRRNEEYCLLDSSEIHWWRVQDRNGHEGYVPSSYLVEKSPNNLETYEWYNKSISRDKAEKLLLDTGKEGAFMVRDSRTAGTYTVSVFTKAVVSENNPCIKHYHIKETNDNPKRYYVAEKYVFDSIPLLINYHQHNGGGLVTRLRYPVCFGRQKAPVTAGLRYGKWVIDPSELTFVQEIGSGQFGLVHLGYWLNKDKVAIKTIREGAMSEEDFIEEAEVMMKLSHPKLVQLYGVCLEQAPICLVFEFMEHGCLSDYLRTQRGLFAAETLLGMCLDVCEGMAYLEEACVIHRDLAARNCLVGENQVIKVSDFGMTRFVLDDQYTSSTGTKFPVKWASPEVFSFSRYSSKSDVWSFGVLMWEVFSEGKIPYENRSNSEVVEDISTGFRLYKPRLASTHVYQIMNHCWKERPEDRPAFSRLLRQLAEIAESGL

SMILES	IC50 [1] [nM]	IC50 [2] [nM]	IC50 (JAK3) [nM]	IC50 (ITK) [nM]
C=CC(=O)N1C[C@H](Nc2ncnc3[nH]cc(C(=O)OCCC)c23)CC[C@@H]1C [Example 3, propyl 4-(((3R,6S)-1-acryloyl-6-methylpiperidin-3-yl)amino)-7H-pyrrolo[2,3-d]pyrimidine-5-carboxylate]	≤ 100	100 to 1000	≤ 10	≤ 10
C=CC(=O)N1C[C@H](Nc2ncnc3[nH]cc(C(=O)OC(C)C)c23)CC[C@@H]1C [Example 4, isopropyl 4-(((3R,6S)-1-acryloyl-6-methylpiperidin-3-yl)amino)-7H-pyrrolo[2,3-d]pyrimidine-5-carboxylate]	100 to 1000	100 to 1000	≤ 10	≤ 10
C=CC(=O)N1CCC[C@@H](Nc2ncnc3[nH]cc(C(=O)C4CC4)c23)C1 [Example 5, (R)-1-(3-((5-(cyclopropanecarbonyl)-7H-pyrrolo[2,3-d]pyrimidin-4-yl)amino)piperidin-1-yl)prop-2-en-1-one]	100 to 1000	> 1000	10 to 100	≤ 10
C=CC(=O)N1CCC[C@@H](Nc2ncnc3[nH]cc(C(=O)C4CCCC4)c23)C1 [Example 6, (R)-1-(3-((5-(cyclopentanecarbonyl)-7H-pyrrolo[2,3-d]pyrimidin-4-yl)amino)piperidin-1-yl)prop-2-en-1-one]	100 to 1000	> 1000	10 to 100	≤ 10
C=CC(=O)N1CC(Nc2ncnc3[nH]cc(C(=O)C4CC4)c23)C1 [Example 7, 1-(3-((5-(cyclopropanecarbonyl)-7H-pyrrolo[2,3-d]pyrimidin-4-yl)amino)azetidin-1-yl)prop-2-en-1-one]	> 1000	> 1000	> 100	10 to 100
C=CC(=O)N1CCC[C@@H](Nc2ccnc3[nH]cc(C(=O)CCOC)c23)C1 [Example 8, (R)-1-(3-((3-(3-methoxypropanoyl)-1H-pyrrolo[2,3-b]pyridin-4-yl)amino)piperidin-1-yl)prop-2-en-1-one]	> 1000	> 1000	10 to 100	10 to 100
C=CC(=O)N1CCC[C@@H](Nc2ccnc3[nH]cc(C(=O)C4CC4)c23)C1 [Example 9, (R)-1-(3-((3-(cyclopropanecarbonyl)-1H-pyrrolo[2,3-b]pyridin-4-yl)amino)piperidin-1-yl)prop-2-en-1-one]	100 to 1000	100 to 1000	≤ 10	≤ 10
C=CC(=O)N1CCC(Nc2ccnc3[nH]cc(C(=O)C4CC4)c23)CC1 [Example 10, 1-(4-((3-(cyclopropanecarbonyl)-1H-pyrrolo[2,3-b]pyridin-4-yl)amino)piperidin-1-yl)prop-2-en-1-one]	> 1000	> 1000	> 100	> 100
C=CC(=O)N1CCC[C@@H](Nc2ccnc3[nH]cc(C(=O)C4CCCC4)c23)C1 [Example 13, (R)-1-(3-((3-(cyclopentanecarbonyl)-1H-pyrrolo[2,3-b]pyridin-4-yl)amino)piperidin-1-yl)prop-2-en-1-one]	100 to 1000	100 to 1000	10 to 100	≤ 10
C=CC(=O)N1CCC[C@@H](Nc2ccnc3[nH]cc(C(=O)C4(C)CC4)c23)C1 [Example 14, (R)-1-(3-((3-(1-methylcyclopropane-1-carbonyl)-1H-pyrrolo[2,3-b]pyridin-4-yl)amino)piperidin-1-yl)prop-2-en-1-one]	100 to 1000	100 to 1000	≤ 10	≤ 10
C=CC(=O)N1CC[C@@H](Nc2ccnc3[nH]cc(C(=O)C4CC4)c23)C1 [Example 15, (R)-1-(3-((3-(cyclopropanecarbonyl)-1H-pyrrolo[2,3-b]pyridin-4-yl)amino)pyrrolidin-1-yl)prop-2-en-1-one]	100 to 1000	> 1000	10 to 100	≤ 10
C=CC(=O)N1C[C@H](Nc2ncnc3[nH]cc(C(=O)OCC(C)C)c23)CC[C@@H]1C [Example 16, isobutyl 4-(((3R,6S)-1-acryloyl-6-methylpiperidin-3-yl)amino)-7H-pyrrolo[2,3-d]pyrimidine-5-carboxylate]	> 1000	100 to 1000	≤ 10	10 to 100
C=CC(=O)N1C[C@H](Nc2ncnc3[nH]cc(C(=O)C4CCC4)c23)CC[C@@H]1C [Example 17, 1-((2S,5R)-5-((5-(cyclobutanecarbonyl)-7H-pyrrolo[2,3-d]pyrimidin-4-yl)amino)-2-methylpiperidin-1-yl)prop-2-en-1-one]	≤ 100	100 to 1000	≤ 10	≤ 10
C=CC(=O)N1CCC[C@@H](Nc2ncnc3[nH]cc(CC4CC4)c23)C1 [Example 18, (R)-1-(3-((5-(cyclopropylmethyl)-7H-pyrrolo[2,3-d]pyrimidin-4-yl)amino)piperidin-1-yl)prop-2-en-1-one]	≤ 100	100 to 1000	≤ 10	≤ 10
C=CC(=O)N1CCC[C@@H](Nc2ccnc3[nH]cc(CC4CC4)c23)C1 [Example 19, (R)-1-(3-((3-(cyclopropylmethyl)-1H-pyrrolo[2,3-b]pyridin-4-yl)amino)piperidin-1-yl)prop-2-en-1-one]	≤ 100	100 to 1000	≤ 10	≤ 10
C=CC(=O)N1CCC[C@@H](Nc2ncnc3[nH]cc(CC4CCC4)c23)C1 [Example 20, (R)-1-(3-((5-(cyclobutylmethyl)-7H-pyrrolo[2,3-d]pyrimidin-4-yl)amino)piperidin-1-yl)prop-2-en-1-one]	100 to 1000	100 to 1000	≤ 10	≤ 10
C=CC(=O)N1CCC[C@@H](Nc2ncnc3[nH]cc(C(C)C4CC4)c23)C1 (stereo partly drawn) [Example 21, 1-((3R)-3-((5-(1-cyclopropylethyl)-7H-pyrrolo[2,3-d]pyrimidin-4-yl)amino)piperidin-1-yl)prop-2-en-1-one]	> 1000	> 1000	> 100	> 100
C=CC(=O)N1CCC[C@@H](Nc2ncnc3[nH]cc(CC4CCCC4)c23)C1 [Example 22, (R)-1-(3-((5-(cyclopentylmethyl)-7H-pyrrolo[2,3-d]pyrimidin-4-yl)amino)piperidin-1-yl)prop-2-en-1-one]	100 to 1000	100 to 1000	≤ 10	≤ 10
C=CC(=O)N1CCC[C@@H](Nc2ncnc3[nH]cc(C4(C)CC4)c23)C1 [Example 23, (R)-1-(3-((5-(1-methylcyclopropyl)-7H-pyrrolo[2,3-d]pyrimidin-4-yl)amino)piperidin-1-yl)prop-2-en-1-one]	100 to 1000	100 to 1000	≤ 10	≤ 10
C=CC(=O)N1C[C@H](Nc2ncnc3[nH]cc(CC4CC4)c23)CC[C@@H]1C [Example 24, 1-((2S,5R)-5-((5-(cyclopropylmethyl)-7H-pyrrolo[2,3-d]pyrimidin-4-yl)amino)-2-methylpiperidin-1-yl)prop-2-en-1-one]	≤ 100	100 to 1000	≤ 10	≤ 10
